Measured values reported in publication PMC9268243, “Metabolic Behaviors of Aconitum Alkaloids in Different Concentrations of Aconiti Lateralis Radix Praeparata and Effects of Aconitine in Healthy Human and Long QT Syndrome Cardiomyocytes” (Molecules, 2022).
Where two headings read alike, the source gives them in different places.

How the values were obtained:
[1] = biological target: T1, L-type calcium current (ICa,L) in normal hiPSC-CMs (Homo sapiens, UniProt Q13936); test: Patch-clamp L-type calcium current, normal hiPSC-CMs; type: cell-based
T1 construct: endogenous in cells; host or cells: normal hiPSC-derived cardiomyocytes (hiPSC-CMs)
From the text: Standard patch-clamp techniques were used to record action potentials, and L-type calcium currents. Composition of intracellular fluid and extracellular fluid were shown in Table 7 and Table 8, respectively. The signal was amplified using an HEKA EPC-10 patch-clamp amplifier (HEKA, Electronics, Ludwigshafen, Germany) and low-pass filtered at 5 kHz. Patch pipettes were fabricated from glass capillaries using a Sutter P-97 microelectrode puller (Novato, CA, USA) and the tips were heat polished with a microforge (NARISHIGE MF-900) to gain a resistance of 2–5 MΩ. Data acquisition was achieved using HEKA Patchmaster (V2x73.2). Data analysis and fit were performed using Clamfit and Graphpad Prism 6.0. The experiment was conducted at 37 °C. One cell can test one or more drugs, or multiple concentrations of the same drug but needs to be rinsed with extracellular fluid between each test. Nifedipine (Sigma) was used as a positive control to ensure cell quality. External solution containing 0.1% DMSO was applied as vehicle to establish the baseline. Recording was done at a temperature-controlled room of 35–37 degrees Celsius.
Isoproterenol, nifedipine, and AC were purchased from Sigma-Aldrich, which were resolved in DMSO (Sigma-Aldrich, D2650). Drug compounds final concentration were AC (0.05, 0.5,5 μM), nifedipine (1 μM), isoproterenol (3 μM), respectively. Dilutions were prepared within 60 min of treatment. All the compound solutions were subjected to regular 10 min ultrasound and oscillations to ensure that compounds were completely dissolved. Equal amounts of DMSO (0.1%) were used as the vehicle controls.

[2] = Pharmacokinetic study of six aconitum alkaloids in rat plasma after oral Fu Zi extracts (UPLC-MS/MS); type: in vivo, Sprague Dawley rats; conditions: both sexes, Sprague Dawley, in vivo, SD rat plasma, mean ± SD, n = 8; for AUC(0-t): read-out: AUC(0–48h); for CL/F: read-out: CLz/F (converted); for Vd/F: read-out: Vz/F; for half-life: read-out: t1/2z (converted)
Procedure: Fu Zi (200 g) was taken and broken by a pulverizer to the size of 0.5–1.0 cm. The broken Fu Zi was soaked in 1.6 L distilled water and boiled for 0.5 h. The filtrate was collected and the previous step was repeated for the filtered residue. The mixed filtrates were precipitated with 60% ethanol, and then centrifuged (2000× g, 10 min). The supernatant was decompressed and concentrated to a final density of 2.0 g/mL by the amount of the crude drugs. The final concentration of ethanol in Fu Zi extracts before administration was below 0.5%. The extract was subsequently kept at −20 °C for oral administration to rats.
All samples were analyzed on UPLC® I-Class and Xevo® TQS mass spectrometry combined system. Separations by a Waters ACQUITY UPLC® HSS T3(2.1 mm × 100 mm, 1.8 μm) column were conducted with a mobile phase of water (A) and acetonitrile (B), both containing 0.1% formic acid, at the flow rate of 0.3 mL·min^−1.The run time was 5.0 min and the gradient elution program was adopted as follows: 0–0.3 min, 10% B; 0.3–1 min, 10–50% B; 1–2.5 min, 50–90% B; 2.5–3 min, 90% B; 3–5 min, 10% B. The temperature of the column and samples were set at 45 °C and 10 °C, respectively. The volume of injection was 2 μL.
The detection was quantified by a triple quadrupole mass spectrometer that was set as multiple reactive monitoring (MRM) in the electrospray positive ionization mode (ESI+). The correlative parameters were as follows: capillary voltage: 3 kV; desolvation gas flow: 800 L·h^−1; cone gas flow: 150 L·h^−1; source temperature: 150 °C; desolvation temperature: 500 °C.
The method of […] was utilized. An amount of 100 μL of plasma samples from rats after oral administration of Fu Zi extracts was precipitated with 300 μL of 50% acetonitrile plus 50% methanol, vortexed for 1.0 min and centrifuged at a speed of 12,000× g at 4 °C for 10 min. The supernatant was transferred to another 1.5 mL centrifuge tube, dried with a stream of nitrogen at 40 °C, redissolved in 50 μL methanol and centrifuged at 12,000× g for 10 min. Then, the supernatant was pipetted out into the autosampler vials and analyzed by UPLC-MS/MS system.
24 Sprague Dawley rats (half male and female, weight 180–220 g) were purchased from Beijing Weitong Lihua Biotechnology Co.Ltd. (Beijing, China). The license number of experimental animal production was SCXK (Jing) 2016–0006. The animals were maintained under a standard laboratory condition (humidity: 40–70%, room temperature: 20–26 °C, […], 12 h dark-light cycle) and fed separately. All animal experiments were conducted according to the Guide for the Care and Use of Laboratory Animals (National Research Council of the USA, 1996) and approved by the Institutional Animal Care and Use Committee (IACUC-DWZX-2020-776). After 5 days of acclimation, the rats were fasted for 12 h but provided with water freely before the experiments. The rats were randomly divided into 3 groups: high (2.0 g/kg), middle (1.0 g/kg), and low (0.5 g/kg) dose groups. The Fu Zi extracts was administered to each rat intragastrically. An equivalent of 0.20 mL blood samples were collected from the fossa orbitalis vein into 1.5 mL heparinized centrifuge tubes at the designated time points after dosing: 0.08, 0.25, 0.5, 1, 2, 4, 8, 12, 24, and 48 h. The plasma samples were pipetted out into another 1.5 mL centrifuge tubes after being centrifuged at 5000× g for 10 min and then stored at −20 °C until further analysis.
The data were acquired by […] from Waters (UNIFI). Microsoft Office Excel and the SPSS software (Version 13.0) was used for data analysis. The data below the LLOQ were regarded as zero in summary statistics. The pharmacokinetic parameters were calculated by DAS pharmacokinetic program (Version 2.0) and all analyzed by non-compartmental method. […] All data were presented as mean ± SD. […]

[3] = test system: rats; conditions: cited from earlier work

T1 sequence (Q13936 whole entry): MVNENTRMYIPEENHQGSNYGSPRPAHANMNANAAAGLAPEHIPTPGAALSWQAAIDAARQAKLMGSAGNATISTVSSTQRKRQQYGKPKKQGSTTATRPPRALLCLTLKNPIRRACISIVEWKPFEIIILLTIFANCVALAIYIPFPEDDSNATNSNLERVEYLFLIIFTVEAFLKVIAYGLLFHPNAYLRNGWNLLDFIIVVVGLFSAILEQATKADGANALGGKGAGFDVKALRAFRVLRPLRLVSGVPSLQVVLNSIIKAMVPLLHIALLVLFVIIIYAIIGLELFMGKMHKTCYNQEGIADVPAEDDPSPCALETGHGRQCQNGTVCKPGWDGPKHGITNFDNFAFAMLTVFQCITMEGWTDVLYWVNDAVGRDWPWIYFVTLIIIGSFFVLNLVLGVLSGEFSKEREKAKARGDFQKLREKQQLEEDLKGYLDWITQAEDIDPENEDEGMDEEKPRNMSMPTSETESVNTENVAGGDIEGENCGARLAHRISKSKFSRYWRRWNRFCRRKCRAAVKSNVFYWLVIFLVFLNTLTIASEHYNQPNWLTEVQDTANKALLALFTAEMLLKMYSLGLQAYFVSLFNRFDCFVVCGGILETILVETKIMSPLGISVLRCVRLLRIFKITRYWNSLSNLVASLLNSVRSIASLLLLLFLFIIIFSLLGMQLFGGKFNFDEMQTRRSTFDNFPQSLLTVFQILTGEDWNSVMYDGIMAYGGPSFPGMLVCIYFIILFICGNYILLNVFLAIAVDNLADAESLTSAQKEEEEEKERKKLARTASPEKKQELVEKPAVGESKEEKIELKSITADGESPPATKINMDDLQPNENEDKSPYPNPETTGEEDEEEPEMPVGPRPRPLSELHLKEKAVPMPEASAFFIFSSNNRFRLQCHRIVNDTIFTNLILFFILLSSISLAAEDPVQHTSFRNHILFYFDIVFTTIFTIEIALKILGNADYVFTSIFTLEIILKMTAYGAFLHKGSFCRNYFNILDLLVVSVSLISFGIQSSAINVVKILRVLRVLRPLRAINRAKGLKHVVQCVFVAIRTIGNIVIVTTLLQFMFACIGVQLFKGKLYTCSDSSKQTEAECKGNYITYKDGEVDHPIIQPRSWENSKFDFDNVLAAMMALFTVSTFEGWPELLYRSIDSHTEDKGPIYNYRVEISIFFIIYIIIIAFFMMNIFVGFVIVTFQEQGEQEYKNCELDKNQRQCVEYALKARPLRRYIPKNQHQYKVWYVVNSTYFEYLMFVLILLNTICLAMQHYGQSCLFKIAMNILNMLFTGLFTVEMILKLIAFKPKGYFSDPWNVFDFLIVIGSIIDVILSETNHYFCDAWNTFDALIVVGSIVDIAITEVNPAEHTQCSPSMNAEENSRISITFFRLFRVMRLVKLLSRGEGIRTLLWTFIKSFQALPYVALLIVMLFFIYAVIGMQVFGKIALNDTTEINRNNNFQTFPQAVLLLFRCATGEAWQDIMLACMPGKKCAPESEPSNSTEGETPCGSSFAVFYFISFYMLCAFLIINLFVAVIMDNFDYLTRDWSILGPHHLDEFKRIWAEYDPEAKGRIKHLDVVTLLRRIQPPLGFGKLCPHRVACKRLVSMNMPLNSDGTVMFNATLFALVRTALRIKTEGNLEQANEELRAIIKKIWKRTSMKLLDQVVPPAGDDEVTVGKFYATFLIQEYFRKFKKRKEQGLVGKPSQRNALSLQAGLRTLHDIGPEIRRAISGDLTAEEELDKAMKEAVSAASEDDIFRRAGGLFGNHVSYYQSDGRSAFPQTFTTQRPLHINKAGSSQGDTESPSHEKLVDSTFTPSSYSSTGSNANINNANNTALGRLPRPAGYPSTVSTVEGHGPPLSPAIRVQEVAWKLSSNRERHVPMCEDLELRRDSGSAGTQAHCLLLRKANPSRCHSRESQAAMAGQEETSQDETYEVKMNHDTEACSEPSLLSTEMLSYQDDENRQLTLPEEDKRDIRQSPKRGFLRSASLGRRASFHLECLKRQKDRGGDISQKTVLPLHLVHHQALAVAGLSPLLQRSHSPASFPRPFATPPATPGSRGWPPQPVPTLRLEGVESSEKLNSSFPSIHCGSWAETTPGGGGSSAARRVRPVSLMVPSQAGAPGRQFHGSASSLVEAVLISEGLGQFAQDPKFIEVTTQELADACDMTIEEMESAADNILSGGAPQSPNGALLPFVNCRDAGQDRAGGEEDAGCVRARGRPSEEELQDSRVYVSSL
T1 sequence (Q08289 whole entry partner): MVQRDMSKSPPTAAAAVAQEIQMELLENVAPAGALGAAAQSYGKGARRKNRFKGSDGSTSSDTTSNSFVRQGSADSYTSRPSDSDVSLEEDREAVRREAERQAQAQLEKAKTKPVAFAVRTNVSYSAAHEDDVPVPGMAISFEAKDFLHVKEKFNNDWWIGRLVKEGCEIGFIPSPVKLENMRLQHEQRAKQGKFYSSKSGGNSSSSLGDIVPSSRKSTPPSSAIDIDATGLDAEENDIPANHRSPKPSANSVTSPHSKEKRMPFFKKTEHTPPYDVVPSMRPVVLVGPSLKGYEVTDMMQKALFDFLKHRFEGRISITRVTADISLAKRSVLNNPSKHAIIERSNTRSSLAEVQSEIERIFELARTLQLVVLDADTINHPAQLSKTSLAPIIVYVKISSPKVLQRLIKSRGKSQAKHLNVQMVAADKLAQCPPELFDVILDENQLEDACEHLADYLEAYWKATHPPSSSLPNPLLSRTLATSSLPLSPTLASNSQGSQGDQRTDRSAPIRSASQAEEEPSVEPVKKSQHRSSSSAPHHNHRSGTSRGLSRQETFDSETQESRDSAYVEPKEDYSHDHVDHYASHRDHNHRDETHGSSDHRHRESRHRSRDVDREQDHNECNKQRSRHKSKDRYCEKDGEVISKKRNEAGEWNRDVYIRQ
T1 sequence (P54289 25-956 partner limits assumed): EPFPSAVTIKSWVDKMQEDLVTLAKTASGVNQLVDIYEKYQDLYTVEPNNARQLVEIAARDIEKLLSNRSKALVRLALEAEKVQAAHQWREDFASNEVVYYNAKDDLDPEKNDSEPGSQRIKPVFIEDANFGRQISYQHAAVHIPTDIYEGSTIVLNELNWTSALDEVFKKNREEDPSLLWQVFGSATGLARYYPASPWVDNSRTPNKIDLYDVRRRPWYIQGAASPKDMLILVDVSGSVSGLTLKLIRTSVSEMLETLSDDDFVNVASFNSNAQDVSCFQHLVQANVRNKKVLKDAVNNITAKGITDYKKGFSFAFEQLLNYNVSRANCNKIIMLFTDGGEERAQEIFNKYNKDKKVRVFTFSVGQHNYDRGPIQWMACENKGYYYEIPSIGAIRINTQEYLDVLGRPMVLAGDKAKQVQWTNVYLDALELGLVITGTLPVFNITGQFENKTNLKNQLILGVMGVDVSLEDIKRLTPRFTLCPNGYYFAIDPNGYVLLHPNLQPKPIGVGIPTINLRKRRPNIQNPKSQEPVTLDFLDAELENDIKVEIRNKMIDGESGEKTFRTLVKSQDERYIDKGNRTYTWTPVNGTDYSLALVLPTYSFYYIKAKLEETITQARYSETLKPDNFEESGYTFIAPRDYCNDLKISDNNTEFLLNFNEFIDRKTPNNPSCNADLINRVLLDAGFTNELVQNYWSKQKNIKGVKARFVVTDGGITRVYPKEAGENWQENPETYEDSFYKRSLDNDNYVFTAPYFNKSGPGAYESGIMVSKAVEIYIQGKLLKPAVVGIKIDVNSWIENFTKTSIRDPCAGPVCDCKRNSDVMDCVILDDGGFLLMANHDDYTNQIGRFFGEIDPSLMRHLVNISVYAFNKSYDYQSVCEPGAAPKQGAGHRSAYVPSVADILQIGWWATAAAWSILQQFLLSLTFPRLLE
T1 sequence (P54289 957-1103 partner limits assumed): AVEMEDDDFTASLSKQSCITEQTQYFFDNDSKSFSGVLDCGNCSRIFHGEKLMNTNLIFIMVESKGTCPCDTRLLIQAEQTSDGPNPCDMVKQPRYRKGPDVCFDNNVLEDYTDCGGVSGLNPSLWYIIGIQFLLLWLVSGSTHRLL

For `CCN1C[C@]2(COC)[C@H](O)C[C@H](OC)[C@@]34[C@@H]5C[C@@]6(O)[C@H](OC(=O)c7ccccc7)[C@@H]5[C@@](OC(C)=O)([C@@H]([C@H](OC)[C@H]23)[C@@H]14)[C@@H](O)[C@@H]6OC` [AC, aconitine], the IC50 ([1]; normal (control) hiPSC-CMs, tested 0.05–5 μM, no concentration dependence, read-out: IC50, inhibition of L-type calcium current) was greater than 5 µM, the “peak value of L-type calcium current” value ([1]; normal group, 0.05–5 μM) was “significantly decreased” and the IC50 ([1]; normal hiPSC-CMs, estimated beyond tested range 0.05–5 μM, read-out: IC50 (eIC50) on ICa,L) was 27.5 µM. The Cmax ([2]; oral Fu Zi extracts 0.5 g/kg) was 1.28 ± 0.34 ng/mL, the Tmax ([2]; oral Fu Zi extracts 0.5 g/kg) was 4.38 ± 3.11 h and the AUC(0-t) ([2]; oral Fu Zi extracts 0.5 g/kg) was 13.5 ± 3.28 ng·h/mL. For the same compound, the CL/F ([2]; oral Fu Zi extracts 0.5 g/kg) was 77 mL/min/kg, the Vd/F ([2]; oral Fu Zi extracts 0.5 g/kg) was 14 ± 4.33 L/kg and the half-life ([2]; oral Fu Zi extracts 0.5 g/kg) was 1.9 ± 0.31 h. For the same compound, the Cmax ([2]; oral Fu Zi extracts 1.0 g/kg) was 1.69 ± 0.33 ng/mL, the Tmax ([2]; oral Fu Zi extracts 1.0 g/kg) was 3.13 ± 1.25 h and the AUC(0-t) ([2]; oral Fu Zi extracts 1.0 g/kg) was 17.1 ± 4.68 ng·h/mL. It also gave a CL/F ([2]; oral Fu Zi extracts 1.0 g/kg) of 106 mL/min/kg, a Vd/F ([2]; oral Fu Zi extracts 1.0 g/kg) of 70 ± 33.4 L/kg and a half-life ([2]; oral Fu Zi extracts 1.0 g/kg) of 7.53 ± 2.74 h. It also gave a Cmax ([2]; oral Fu Zi extracts 2.0 g/kg) of 2.27 ± 0.7 ng/mL, a Tmax ([2]; oral Fu Zi extracts 2.0 g/kg) of 1.03 ± 0.84 h and an AUC(0-t) ([2]; oral Fu Zi extracts 2.0 g/kg) of 23.8 ± 7.77 ng·h/mL. For the same compound, the CL/F ([2]; oral Fu Zi extracts 2.0 g/kg) was 148 mL/min/kg, the Vd/F ([2]; oral Fu Zi extracts 2.0 g/kg) was 167 ± 80.1 L/kg and the half-life ([2]; oral Fu Zi extracts 2.0 g/kg) was 11.5 ± 4.3 h. The toxic cardiovascular effects ([3]; oral 0.4 mg/kg) was “arrhythmia, lower heart rate, and blood pressure, were observed” and the toxic cardiovascular effects ([3]; oral low-dose 0.1 mg/kg) was “not found”.
